≈ marks a conversion by molar mass, not a printed value. Like-named read-outs stand apart in the source and are kept apart here. One block for each molecule: values may come before it.
How the values were obtained:
[1] = system: Aspergillus spp.; test: Antifungal broth microdilution (Example 13); type: cell-based, A. niger, A. terreus, A. fumigatus, A. flavus
[2] = system: Aspergillus spp.; conditions: cited from earlier work
[3] = system: C. parapsilosis ATCC 22019; conditions: C. parapsilosis ATCC 22019, CLSI established QC range, cited from earlier work
[4] = system: Candida spp.; conditions: C. parapsilosis MMX 2323 (ATCC 22019), cited from earlier work
[5] = system: Candida krusei; conditions: C. krusei ATCC 6258, CLSI established QC range, cited from earlier work
[6] = system: Candida krusei; test: Antifungal broth microdilution (Example 13); type: cell-based; conditions: C. krusei ATCC 6258, comparators, single value
[7] = system: Candida spp.; test: Broth microdilution MIC (Example 11); type: cell-based, C. parapsilosis, C. albicans, C. glabrata, C. tropicalis
[8] = system: S. aureus ATCC 29213; test: MIC control strain; conditions: QC organism, Example 13
[9] = system: C. parapsilosis ATCC 22019; test: Antifungal broth microdilution (Example 13), QC organism; type: cell-based, Candida parapsilosis; conditions: comparators, single value
[10] = system: E. coli ATCC 25922; test: MIC control strain; conditions: QC organism, Example 13
[11] = system: Gram-positive organisms (S. aureus, S. pneumoniae); conditions: cited from earlier work
[12] = system: Gram-positive organisms (S. aureus, S. pneumoniae); test: Broth microdilution MIC with pulmonary surfactant (Survanta); type: cell-based, Staphylococcus aureus, Streptococcus pneumoniae

SMILES: C[C@@H]1[C@H](O)[C@@H](C)/C=C/C=C/C=C/C=C/C=C/C=C/C=C/[C@H](O[C@@H]2O[C@H](C)[C@@H](O)[C@H](N)[C@@H]2O)C[C@@H]2O[C@](O)(C[C@@H](O)C[C@@H](O)[C@H](O)CC[C@@H](O)C[C@@H](O)CC(=O)O[C@H]1C)C[C@H](O)[C@H]2C(=O)O [Amphotericin B]
MIC 24 hr ([1]; A. flavus ATCC 204304): 0.5 µg/mL (≈ 0.541 µM)
MIC 48 hr ([1]; A. flavus ATCC 204304): 1 µg/mL (≈ 1.08 µM)
MIC 24 hr ([1]; A. fumigatus ATCC MYA-3626): 0.5 µg/mL (≈ 0.541 µM)
MIC 48 hr ([1]; A. fumigatus ATCC MYA-3626): 1 µg/mL (≈ 1.08 µM)
QC Range 48 hr ([2]; A. flavus ATCC 204304, CLSI established QC range): 0.5-4
QC Range 48 hr ([2]; A. fumigatus ATCC MYA-3626, CLSI established QC range): 0.5-4
QC Range 24 hr ([3]; 24 hr): 0.25-2
QC Range 48 hr ([3]; 48 hr): 0.5-4
CLSI QC range of MIC ([4]; 24 hr): 0.25 to 2 µg/mL
CLSI QC range of MIC ([4]; 48 hr): 0.5 to 4 µg/mL
QC Range 24 hr ([5]; 24 hr): 0.5-2
QC Range 48 hr ([5]; 48 hr): 1-4
MIC 24 hr ([6]; 24 hr): 0.5 µg/mL (≈ 0.541 µM)
MIC 48 hr ([6]; 48 hr): 0.5 µg/mL (≈ 0.541 µM)
MIC ([7]; C. albicans MMX 7039, Sensitive, incubation 24 hr): 0.5, 0.5 μg/mL
MIC ([7]; C. albicans MMX 7039, Sensitive, incubation 48 hr): 0.5, 0.5 μg/mL
MIC ([7]; C. albicans MMX 7055, Sensitive, incubation 24 hr): 0.25 µg/mL (≈ 0.271 µM)
MIC ([7]; C. albicans MMX 7055, Sensitive, incubation 48 hr): 0.5 µg/mL (≈ 0.541 µM)
MIC ([7]; C. glabrata MMX 7318, FLU^R, incubation 24 hr): 0.5 µg/mL (≈ 0.541 µM)
MIC ([7]; C. glabrata MMX 7318, FLU^R, incubation 48 hr): 1 µg/mL (≈ 1.08 µM)
MIC ([7]; C. glabrata miX 7086, FLU^R, incubation 24 hr): 0.5 µg/mL (≈ 0.541 µM)
MIC ([7]; C. glabrata miX 7086, FLU^R, incubation 48 hr): 1 µg/mL (≈ 1.08 µM)
MIC ([7]; C. parapsilosis MMX 2323 (ATCC 22019), QC, incubation 24 hr): 0.5 µg/mL (≈ 0.541 µM)
MIC ([7]; C. parapsilosis MMX 2323 (ATCC 22019), QC, incubation 48 hr): 1 µg/mL (≈ 1.08 µM)
MIC ([7]; C. parapsilosis MMX 7370, FLU^R, incubation 24 hr): 0.5 µg/mL (≈ 0.541 µM)
MIC ([7]; C. parapsilosis MMX 7370, FLU^R, incubation 48 hr): 1 µg/mL (≈ 1.08 µM)
MIC ([7]; C. parapsilosis MMX 7555, FLU^R, incubation 24 hr): 0.5, 0.5 μg/mL
MIC ([7]; C. parapsilosis MMX 7555, FLU^R, incubation 48 hr): 0.5, 0.5 μg/mL
MIC ([7]; C. tropicalis MMX 7247, FLU^R, incubation 24 hr): 0.5 µg/mL (≈ 0.541 µM)
MIC ([7]; C. tropicalis MMX 7247, FLU^R, incubation 48 hr): 1 µg/mL (≈ 1.08 µM)
MIC ([7]; C. tropicalis MMX 7248, FLU^R, incubation 24 hr): 0.5 µg/mL (≈ 0.541 µM)
MIC ([7]; C. tropicalis MMX 7248, FLU^R, incubation 48 hr): 1 µg/mL (≈ 1.08 µM)
MIC ([7]; C. tropicalis MMX 7360, FLU^R, incubation 24 hr): 0.5, 0.5 μg/mL
MIC ([7]; C. tropicalis MMX 7360, FLU^R, incubation 48 hr): 0.5, 0.5 μg/mL
MIC 24 hr [8]: >64
MIC 24 hr ([9]; 24 hr): 0.5 µg/mL (≈ 0.541 µM)
MIC 48 hr ([9]; 48 hr): 0.5 µg/mL (≈ 0.541 µM)
MIC 24 hr [10]: >64

effect of Survanta addition on MIC values ([12]; S. aureus and S. pneumoniae): increased
MIC ([12]; S. pneumoniae ATCC 49619, 0 percent Survanta): 0.06 µg/mL (≈ 0.037 µM)
MIC ([12]; S. pneumoniae ATCC 49619, 1 percent Survanta): 0.25 µg/mL (≈ 0.154 µM)
MIC ([12]; S. pneumoniae ATCC 49619, 2.5 percent Survanta): 1 µg/mL (≈ 0.617 µM)
MIC ([12]; S. pneumoniae MMX 3162, 0 percent Survanta): 0.12 µg/mL (≈ 0.074 µM)
MIC ([12]; S. pneumoniae MMX 3162, 1 percent Survanta): 0.25 µg/mL (≈ 0.154 µM)
MIC ([12]; S. pneumoniae MMX 3162, 2.5 percent Survanta): 0.25 µg/mL (≈ 0.154 µM)
MIC ([12]; Staphylococcus aureus, ATCC29213, S. aureus ATCC 29213, 0 percent Survanta): 0.5 µg/mL (≈ 0.309 µM)
MIC ([12]; Staphylococcus aureus, ATCC29213, S. aureus ATCC 29213, 1 percent Survanta): 16 µg/mL (≈ 9.87 µM)
MIC ([12]; Staphylococcus aureus, ATCC29213, S. aureus ATCC 29213, 2.5 percent Survanta): 32 µg/mL (≈ 19.7 µM)
MIC ([12]; Staphylococcus aureus, ATCC29213, S. aureus ATCC 29213, 5 percent Survanta): > 32 µg/mL
MIC ([12]; Staphylococcus aureus, ATCC29213, S. aureus ATCC 29213, 10 percent Survanta): > 32 µg/mL
MIC ([12]; Staphylococcus aureus, ATCC43300, S. aureus ATCC 43300, 0 percent Survanta): 0.25 µg/mL (≈ 0.154 µM)
MIC ([12]; Staphylococcus aureus, ATCC43300, S. aureus ATCC 43300, 1 percent Survanta): 8 µg/mL (≈ 4.94 µM)
MIC ([12]; Staphylococcus aureus, ATCC43300, S. aureus ATCC 43300, 2.5 percent Survanta): 16 µg/mL (≈ 9.87 µM)
MIC ([12]; Staphylococcus aureus, ATCC43300, S. aureus ATCC 43300, 5 percent Survanta): 16 µg/mL (≈ 9.87 µM)
MIC ([12]; Staphylococcus aureus, ATCC43300, S. aureus ATCC 43300, 10 percent Survanta): > 32 µg/mL
SMILES: CCCCCCCCCC(=O)N[C@@H](Cc1c[nH]c2ccccc12)C(=O)N[C@H](CC(N)=O)C(=O)N[C@@H](CC(=O)O)C(=O)N[C@@H]1C(=O)NCC(=O)N[C@@H](CCCN)C(=O)N[C@@H](CC(=O)O)C(=O)N[C@H](C)C(=O)N[C@@H](CC(=O)O)C(=O)NCC(=O)N[C@H](CO)C(=O)N[C@@H]([C@H](C)CC(=O)O)C(=O)N[C@@H](CC(=O)c2ccccc2N)C(=O)O[C@@H]1C [daptomycin]
CLSI acceptable MIC QC range ([11]; S. aureus ATCC 29213): (0.12-1) μg/mL
CLSI acceptable MIC QC range ([11]; S. pneumoniae ATCC 49619): (0.06-0.5) μg/mL
